# Reference: a melting point compilation (Tetko et al.; mined from patent text by program, amines drawn as free bases though some values may be those of a salt)
row,Structure (SMILES),melting point
1,COc1cccc(-c2nc3sccn3c2-c2ccnc(N[C@@H]3CCCN(C[C@@H](O)CO)C3)n2)c1,106 to 108 °C
2,N#Cc1cc2cc(Br)ccc2nc1Cl,228 to 230 °C
3,Fc1cc2c(c3cccnc13)OC(CN1CC=C(c3c[nH]c4ccccc34)CC1)CO2 (stereo not given),215 °C
4,C=Cc1ccc(CN2CCNCCN(Cc3ccc(C=C)cc3)CC2)cc1,162 to 164 °C
5,Cc1cc(C(=O)N(C)C)ncc1C(c1cc(F)ccc1F)S(=O)(=O)c1ccc(Cl)cc1 (stereo not given),207 to 208 °C
6,Cc1cc(C)c2nc(C3CC3)n(-c3ccc(C(C(=O)O)C4CCCC4)cc3)c2n1 (stereo not given),180 °C
7,CC(C)(C)C(=O)Nc1ccc(-c2nc3n(c2-c2ccc(NC(=O)C(C)(C)C)cc2)CCS3)cc1,210 to 215 °C
8,COCc1cnc2c(NC(=O)c3c(Cl)cccc3Cl)cccc2c1COC,160 to 161 °C
9,CN1CCN(c2ccc3ncnc(N4CCc5ccc(Cl)cc54)c3c2)CC1,289 to 290 °C
10,O=C(O)c1ccc(C=Cc2ccc(C(=O)O)cc2)cc1,> 280 °C
11,O=C(Nc1ccc(Cl)c(Cl)c1)Oc1cccc(N=C=S)c1,118 to 123 °C
12,Cc1ccc2c(Cl)cc(C(=O)NCc3ccc(Cl)cc3)c(O)c2n1,128 to 130 °C
13,NS(=O)(=O)c1ccc(-c2nn3c(-c4ccc(F)cc4)coc3c2-c2ccc(F)cc2)cc1,235 to 237 °C
14,Cc1cn(C2CC(F)C(CO)O2)c(=S)[nH]c1=S (stereo not given),164 to 165 °C
15,CC1(COc2ccc(N3CCC(Oc4ccc(OC(F)(F)F)cc4)CC3)cc2)Cn2cc([N+](=O)[O-])nc2O1 (stereo not given),165 to 166 °C
16,CCCCCCCCCCCCS(=O)(=O)C(C#N)=C1C=C(N2CCCC2)CC(C)(C)C1,114 to 115 °C
17,Cc1oc(-c2ccc(Cl)cc2)nc1CC(=O)O,160 to 161 °C
18,CSc1c(C(=O)NN2CCCCC2)nn(-c2ccc(Cl)cc2Cl)c1-c1ccc(Cl)cc1,172 to 174 °C
19,Cc1ccc(-c2cc(Cl)c3ccccc3n2)cc1,75 to 77 °C
20,CC(=O)C1CCC2C3CCC4CC(O)(C#Cc5ccccn5)CCC4(C)C3CCC12C (stereo not given),192 to 195 °C
21,O=C(NCc1ccc(Cl)cc1)c1cn(CCCOC2CCCCO2)c2c(F)cc(CO)cc2c1=O (stereo not given),148 to 150 °C
22,O=C1C(c2cccc(Br)c2)n2cncc2CN1Cc1cccnc1 (stereo not given),50 to 54 °C
23,COC(=O)c1ccccc1NC(=O)CN1CCN(C(=O)c2ccc(OC)cc2)CC1,168 to 169 °C
24,CCOCc1nc2c(N)nc3ccccc3c2n1CC(C)(C)OCCS(=O)(=O)c1ccccc1,187 to 189 °C
25,CC(C)C(C)(C)C(O)(COc1ccc(Cl)cc1)Cn1cncn1 (stereo not given),59 to 60 °C

row,Structure (SMILES),melting point
1,Cc1coc(Cc2ccc([N+](=O)[O-])cc2)n1,67 to 68 °C
2,CCOC(=O)c1ccc(OCC2CCN(C(=O)OC(C)(C)C)CC2)c(OC)c1,81 to 83 °C
3,c1cnc2[nH]c(CCCN3CCOCC3)nc2c1,101 to 103 °C
4,CC(=Cc1ccc(O)cc1)C(=O)O,204 to 205 °C
5,Cc1ccccc1C(O)c1cncnc1C(C)(C)C (stereo not given),125 to 127 °C
6,O=C1c2ccccc2C(=O)N1CCCCOc1ccc(-c2ccncn2)cc1,100 to 102 °C
7,COc1cc(Cl)ccc1N(Cc1cccnc1)S(C)(=O)=O,121 to 123 °C
8,CC(C)(C)C(=O)Nc1nc(O)c2cc(C#Cc3ccc(C(=O)O)cc3)cnc2n1,> 250 °C
9,COc1ccc(C(=CN(C)C)C(C)=O)cc1,51 °C
10,Cc1ccc(CC(O)=S)cc1,94.5 to 95 °C
11,O=C(Nc1c[nH]nc1C(=O)NCCSc1ccccn1)c1ccccn1,162 to 163 °C
12,O=C(O)c1ccc(CCCC2SCC(=O)N2CCC2(O)CCCCC2)cc1 (stereo not given),147 to 148 °C
13,O=C1OC(Cc2ccccc2)=NC1=Cc1cccs1,193 to 195 °C
14,Cn1ncc2c1=CC1=CC=C(N)C(=O)C=21,225 to 227 °C
15,COC1(OC)C(=O)N(C)c2ccc(I)cc21,101 to 103 °C
16,Nc1cccc(CNC(=O)C2Cc3ccccc3N2S(=O)(=O)c2ccc(-c3cccc(C(F)(F)F)c3)cc2)c1 (stereo not given),82 °C
17,COc1cc2cn(CC(O)CO)nc2cc1OC (stereo not given),113 to 115 °C
18,CC(C)c1oc(C=Cc2ccccc2)nc1C(=O)O,141 to 142 °C
19,CN1CCc2c(c3ccccc3n2CCC#N)C1,108 to 110 °C
20,COC(=O)c1c(N)ncn1C(c1ccccc1)c1ccccc1,199 to 201 °C
21,O=S(=O)(/C=C/c1ccc(F)cc1)Nc1ccc(Cl)cc1,126 to 128 °C
22,N#Cc1cc(NC(=O)c2cc3ccccc3s2)ccc1N1CCC(CCO)CC1,218 °C
23,CCSc1cc(C)nc(SCC)c1NC(=O)CN1CCN(CCSc2nc3cccc(C(F)(F)F)c3o2)CC1,107 to 108 °C
24,COc1cc(-n2cnc3cc(-c4ccc(Cl)cc4)sc3c2=O)ccc1OCC1(OP(=O)(O)O)CC(F)(F)C1,219 °C
25,COc1ccc(-c2nc(C(=O)NC3CCN(Cc4ccccc4)CC3)sc2-c2ccc(OC)cc2)cc1,130 to 131 °C

row,Structure (SMILES),melting point
1,CC1(C)CC(N2CCCCCC2=O)CC(C)(C)N1,113 to 117 °C
2,COCc1nc(-c2cc(C(C)(C)C)c(O)c(C(C)(C)C)c2)cs1,116 to 117 °C
3,O=C(Nc1c(F)cccc1F)c1ccc(-n2nc(C(F)(F)F)cc2C2CC2)c(F)c1,168 to 170 °C
4,CCOc1ccccc1NC(=O)C(C)(C)CCCOc1cc(C)ccc1C,59 to 60 °C
5,O=C(O)Cc1ccc(O)c(Cl)c1Cl,105 to 106 °C
6,CN1CCC(c2c[nH]c3ccc(NC(=O)c4ccsc4)nc23)CC1,123 to 127 °C
7,CC(C)(C)c1ccc(C(=O)N[C@H]2CC[C@H](CCN3CCN(c4nccc5c4OCC5)CC3)CC2)cc1,183 °C
8,CC(C)(C)C(=O)Nc1nc(O)c2c(C#C[Si](C)(C)C)c[nH]c2n1,> 300 °C
9,CCCCCS(=O)(=O)NC(=O)/C=C/c1ccc(OCCOC)cc1Nc1ccc(C(F)(F)F)cc1Cl,174 to 175 °C
10,O=Cc1ccc(OCCN2C(=O)COc3ccccc32)cc1,75 to 78 °C
11,CC(C)(C)c1cc(-c2nn(CCO)c3ncccc23)cc(C(C)(C)C)c1O,135 to 137 °C
12,O=C1[C@H]2Cc3c([nH]c4ccccc34)[C@@H](c3ccc4c(c3)OCO4)N2C(=O)C2CNCCN12 (stereo not given in full),226 to 237 °C
13,CCOC(=O)c1cn(CCCN(C)C)c2nn(C)cc2c1=O,120 to 121 °C
14,COc1cn(-c2ccc(C3CC3)cc2F)nc(-c2ccnn2-c2ccccc2)c1=O,140 to 142 °C
15,O=C(CCl)Nc1ccc2c(c1)C(=O)c1cc(NC(=O)CCl)ccc1C2=O,286 °C
16,CC(C)(C)c1ccc(Cn2cc(C(=O)C(=O)O)c3cc(-c4cccc(Cl)c4)ccc32)cc1,138 to 139 °C
17,CN1C(=O)C(NC(=O)Nc2ccc(F)cc2)N=C(c2ccccc2)c2ccccc21 (stereo not given),269 to 270 °C
18,O=C1C(=O)c2ccc(-c3ccccc3)cc2C2=C1SCC1(CCN(Cc3ccc(F)cc3)CC1)O2,197 to 198 °C
19,Cc1c(C#N)sc2nc(CCc3ccccc3)nc(NC3CCC3)c12,153 to 155 °C
20,CCCCCN(C(=O)Cl)c1ccc2c(c1)C(C)(C)CCC2(C)C,79 to 81 °C
21,COc1ccc(OCC2(Cc3c(C)[nH]c(=O)c(C(C)C)c3O)CC2)cc1,222 to 223 °C
22,CCC(C)(C)c1ccc(Oc2cc(NC(=O)Nc3ccc(C#N)cc3)c(O)cc2[N+](=O)[O-])c(C(C)(C)CC)c1,212 to 215 °C
23,OC1(c2ccc(Cl)cc2)CCN(CCCn2cnc3ccccc32)CC1,160 °C
24,Cc1c(N)nc(Cl)nc1Cl,193 to 194 °C
25,CCCCCCCCCCc1nnn(CC(=O)O)n1,83 to 86 °C

row,Structure (SMILES),melting point
1,CO/C(=C\C=C\c1cc2cc(Br)ccc2[nH]1)C(=O)O,208 to 210 °C
2,O=C(O)c1ccc(OCc2ccc(F)cc2)cc1,109 to 110 °C
3,N#CC(N)=C(C#N)N=Cc1cnn(-c2ncc(C(F)(F)F)cc2Cl)n1,220 to 222 °C
4,Cc1c(C(=O)OC(C)(C)C)oc2cccc(O)c12,158 to 159 °C
5,COc1ccc2c(c1)C(C(=O)N(Cc1ccc(-n3ccnc3)cc1)c1ccc(C(C)C)cc1)CCC2 (stereo not given),111 °C
6,Cc1cccc(C)c1-n1c(C)c(C#N)c(=O)[nH]c1=O,302 to 303 °C
7,NCc1cc2c(Oc3ccc(Cl)cc3)cncc2s1,78.6 to 79.8 °C
8,CC1(C)CCC(C)(C)c2cc([N+](=O)[O-])c([N+](=O)[O-])cc21,200 °C
9,CCCc1c(OCCCCCC(=O)c2c(C)c(C)c(OC)c(OC)c2C)ccc(C(=O)O)c1O,108 to 112 °C
10,O=C(Nc1cccnn1)N1CCN(c2cncc(-c3ccc(F)cc3F)c2)CC1,172 to 173 °C
11,CCCCCCCCSc1nc2ccccc2[nH]1,110 to 113 °C
12,Cc1ccc(-c2ccc(-c3ccccc3)s2)s1,102 °C
13,Nc1cc(C(F)(F)F)cc([N+](=O)[O-])c1N,121 to 123 °C
14,CCOCCn1c(NC2CCN(CCO)CC2)nc2cccnc21,94.3 °C
15,O=C(O)C1=Cc2cc(SC(F)(F)F)ccc2OC1C(F)(F)F (stereo not given),139 to 143 °C
16,O=C(c1cc(=O)c2c(OCCOc3ccccc3)cccc2o1)N1CCN(CCO)CC1,191 °C
17,NCCc1c(C(=O)O)[nH]c2ccc(Br)cc12,248 to 249 °C
18,O=c1c(CO)coc2cc(OCCCN3CCC(c4noc5cc(F)ccc45)CC3)ccc12,200 to 202 °C
19,CC(C)(C)OC(=O)CN1CC(c2ccco2)SCC(N)C1=O (stereo not given),90 to 92 °C
20,O=C(Nc1nc2c(s1)CC(N1CCN(c3ccccn3)CC1)CC2)c1ccccc1 (stereo not given),230 to 232 °C
21,CC(=O)n1nc(C(N)=O)c2ccccc21,165 to 171 °C
22,CN(CCCc1cc(F)c2ncc(C(=O)NCc3ccc(Cl)cc3)c(O)c2c1)Cc1ccccc1,161 to 162 °C
23,CCCCCCN(CCCCCC)C(=O)COc1cc(C(=O)O)c([N+](=O)[O-])c(C(=O)O)c1,180 to 184 °C
24,O=C(NC1CCN(CCc2ccccc2)CC1)c1c[nH]c2ccc(F)cc12,238 to 240 °C
25,COC(=O)c1cc(C)cc(C#N)c1,68 to 69 °C
